Several values for one entry are separate records, joined by “and”; a condition that tells them apart may be missing. Identical values can stand only once. Like-named read-outs stand apart in the source and are kept apart here.
Key:
[1] = tested on: cleaved PARP and cleaved Caspase 3 in MV4;11 cells; test: Western blotting of cleaved PARP / caspase 3 in MV4; assay type: cell-based, human; details: MV4;11 cell line
[2] = tested on: c-Myc protein in RS4;11 cells; test: Western blotting of c-Myc in RS4; assay type: cell-based, human; details: RS4;11 cell line
MOLM-13 cells = test: Apoptosis by flow cytometry; assay type: cell-based, human; details: MOLM-13, as low as 1 nM, 24 h treatment
[3] = Tissue distribution in mice bearing RS4; assay type: in vivo, SCID mice; details: IV, 5mg/kg; for Concentration of QCA570 in Heart / Concentration of QCA570 in Intestine / Concentration of QCA570 in Kidney / Concentration of QCA570 in Liver / Concentration of QCA570 in Lung / Concentration of QCA570 in Tumor / Concentration of QCA570 in plasma: individual mice
[4] = tested on: BRD2, BRD3, BRD4, c-Myc and cleaved PARP in RS4;11 xenograft tumors; test: Pharmacodynamic analysis in RS4; assay type: in vivo, SCID mice
[5] = tested on: c-Myc protein in MV4;11 cells; test: Western blotting of c-Myc in MV4; assay type: cell-based, human; details: MV4;11 cell line
MV4;11 xenograft tumors = details: 3 times per week for 2 weeks, intravenous
GSPT1 protein = GSPT1 protein (Homo sapiens, UniProt P15170); test: Western blotting of GSPT1 in MV4; assay type: cell-based; details: MV4;11 and RS4;11 cells
[6] = tested on: BRD2, BRD3 and BRD4 proteins in RS4;11 cells; details: 3 h treatment
MV4;11 cells = test: Apoptosis by flow cytometry; assay type: cell-based, human; details: MV4;11, as low as 1 nM, 24 h treatment
RS4;11 xenograft tumors = test: Anti-tumor efficacy, RS4; assay type: in vivo, SCID mice
[7] = tested on: MV4;11, MOLM-13 and RS4;11 acute leukemia cell lines; test: Cell growth inhibition, statements covering the three leukemia cell lines; assay type: cell-based, human
[8] = tested on: cleaved PARP and cleaved Caspase 3 in RS4;11 cells; test: Western blotting of cleaved PARP / caspase 3 in RS4; assay type: cell-based, human; details: RS4;11 cell line, 24 h treatment
RS4;11 cells = test: Apoptosis by flow cytometry; assay type: cell-based, human
[9] = tested on: BRD2, BRD3 and BRD4 proteins in MV4;11 cells; test: Western blotting of BET proteins in MV4; assay type: cell-based; details: 3 h treatment
[10] = RS4;11 xenograft, all treatment groups

Chain of GSPT1 protein (P15170 whole entry): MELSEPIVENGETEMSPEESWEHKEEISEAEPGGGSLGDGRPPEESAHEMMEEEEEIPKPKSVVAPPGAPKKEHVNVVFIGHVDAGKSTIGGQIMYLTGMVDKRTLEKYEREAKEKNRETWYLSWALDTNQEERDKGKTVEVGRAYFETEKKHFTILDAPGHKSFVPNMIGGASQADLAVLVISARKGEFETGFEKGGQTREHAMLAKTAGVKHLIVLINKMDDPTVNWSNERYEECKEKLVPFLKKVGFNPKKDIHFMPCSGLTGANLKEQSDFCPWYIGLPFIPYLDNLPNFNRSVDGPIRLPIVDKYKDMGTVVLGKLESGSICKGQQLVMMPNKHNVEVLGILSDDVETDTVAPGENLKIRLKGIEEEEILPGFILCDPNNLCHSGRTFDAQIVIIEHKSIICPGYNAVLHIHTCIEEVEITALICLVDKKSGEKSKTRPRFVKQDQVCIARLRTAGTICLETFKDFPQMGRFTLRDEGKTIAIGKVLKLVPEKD

With “3-(4-(5-(4-((3-Benzyl-9-methyl-4H,6H-thieno[2,3-e][1,2,4]triazolo[3,4-c][1,4]oxazepin-2-yl)ethynyl)-1H-pyrazol-1-yl)pent-1-yn-1-yl)-1-oxoisoindolin-2-yl)piperidine-2,6-dione [Compound 35]” the “lowest concentration inducing caspase 3 activation” value [1] was at most 0.3 nM, the “lowest concentration inducing robust cleavage of PARP” value ([1]; 24 h treatment) was 0.1 to 0.3 nM and the “lowest concentration very effective in reducing c-Myc protein levels” value [2] was at most 10 pM. The cells undergoing apoptosis (MOLM-13 cells) was over 60%, the “Concentration of QCA570 in Heart” value ([3]; 1 h, listed as QCA570, 5 mg/kg) was 373 ng/g and 288 ng/g and the “Concentration of QCA570 in Intestine” value ([3]; 1 h, listed as QCA570, 5 mg/kg) was 1283 ng/g and 1009 ng/g. The “Concentration of QCA570 in Kidney” value ([3]; 1 h, listed as QCA570, 5 mg/kg) was 649 ng/g and 675 ng/g, the “Concentration of QCA570 in Liver” value ([3]; 1 h, listed as QCA570, 5 mg/kg) was 1227 ng/g and 1720 ng/g and the “Concentration of QCA570 in Lung” value ([3]; 1 h, listed as QCA570, 5 mg/kg) was 1041 ng/g and 696 ng/g. The “Concentration of QCA570 in Tumor” value ([3]; 1 h, listed as QCA570, 5 mg/kg) was 642 ng/g and 405 ng/g, the “Concentration of QCA570 in plasma” value ([3]; 1 h, listed as QCA570, 5 mg/kg) was 1575 ng/mL and 2360 ng/mL and the “Concentration of QCA570 in Heart” value ([3]; 3 h, listed as QCA570, 5 mg/kg) was 17 ng/g and 22 ng/g. For the same substance, the “Concentration of QCA570 in Intestine” value ([3]; 3 h, listed as QCA570, 5 mg/kg) was 50 ng/g and 92 ng/g, the “Concentration of QCA570 in Kidney” value ([3]; 3 h, listed as QCA570, 5 mg/kg) was 40 ng/g and 49 ng/g and the “Concentration of QCA570 in Liver” value ([3]; 3 h, listed as QCA570, 5 mg/kg) was 57 ng/g and 209 ng/g. For the same substance, the “Concentration of QCA570 in Lung” value ([3]; 3 h, listed as QCA570, 5 mg/kg) was 35 ng/g and 89 ng/g, the “Concentration of QCA570 in Tumor” value ([3]; 3 h, listed as QCA570, 5 mg/kg) was 177 ng/g and 199 ng/g and the “Concentration of QCA570 in plasma” value ([3]; 3 h, listed as QCA570, 5 mg/kg) was 47 ng/mL and 263 ng/mL. The “Concentration of QCA570 in Heart” value ([3]; 6 h) was “BLQ”, the “Concentration of QCA570 in Intestine” value ([3]; 6 h) was “BLQ” and the “Concentration of QCA570 in Kidney” value ([3]; 6 h) was “BLQ”. For the same substance, the “Concentration of QCA570 in Liver” value ([3]; 6 h) was “BLQ”, the “Concentration of QCA570 in Lung” value ([3]; 6 h) was “BLQ” and the “Concentration of QCA570 in plasma” value ([3]; 6 h) was “BLQ”. The “Concentration of QCA570 in Tumor” value ([3]; 6 h, listed as QCA570, 5 mg/kg) was 87.9 ng/g and 68.7 ng/g, the “Concentration of QCA570 in Heart, mean” value ([3]; Mean (1h)) was 331 ng/g and the “Concentration of QCA570 in Intestine, mean” value ([3]; Mean (1h)) was 1146 ng/g. For the same substance, the “Concentration of QCA570 in Kidney, mean” value ([3]; Mean (1h)) was 662 ng/g, the “Concentration of QCA570 in Liver, mean” value ([3]; Mean (1h)) was 1473 ng/g and the “Concentration of QCA570 in Lung, mean” value ([3]; Mean (1h)) was 868 ng/g. The “Concentration of QCA570 in Tumor, mean” value ([3]; Mean (1h)) was 524 ng/g, the “Concentration of QCA570 in plasma, mean” value ([3]; Mean (1h)) was 1968 ng/mL and the “Concentration of QCA570 in Heart, mean” value ([3]; Mean (3h)) was 19 ng/g. For the same substance, the “Concentration of QCA570 in Intestine, mean” value ([3]; Mean (3h)) was 71 ng/g, the “Concentration of QCA570 in Kidney, mean” value ([3]; Mean (3h)) was 44 ng/g and the “Concentration of QCA570 in Liver, mean” value ([3]; Mean (3h)) was 133 ng/g. The “Concentration of QCA570 in Lung, mean” value ([3]; Mean (3h)) was 62 ng/g, the “Concentration of QCA570 in Tumor, mean” value ([3]; Mean (3h)) was 188 ng/g and the “Concentration of QCA570 in plasma, mean” value ([3]; Mean (3h)) was 155 ng/mL. The “Concentration of QCA570 in Heart, mean” value ([3]; Mean (6 h)) was “BLQ”, the “Concentration of QCA570 in Intestine, mean” value ([3]; Mean (6 h)) was “BLQ” and the “Concentration of QCA570 in Kidney, mean” value ([3]; Mean (6 h)) was “BLQ”. The “Concentration of QCA570 in Liver, mean” value ([3]; Mean (6 h)) was “BLQ”, the “Concentration of QCA570 in Lung, mean” value ([3]; Mean (6 h)) was “BLQ” and the “Concentration of QCA570 in Tumor, mean” value ([3]; Mean (6 h)) was 78 ng/g. For the same substance, the “Concentration of QCA570 in plasma, mean” value ([3]; Mean (6 h)) was “BLQ”, the “levels of BRD2, BRD3 and BRD4 proteins in tumor tissue” value ([4]; single intravenous dose 1 and 5 mg/kg, 1 h and 6 h time-points) was “dramatically reduces” and the “c-Myc protein levels in tumor tissue” value ([4]; single intravenous dose 1 and 5 mg/kg, all time points (1, 6, 24 h)) was “reduces c-Myc protein levels dramatically”. For the same substance, the “cleavage of PARP in tumor tissue” value ([4]; single intravenous dose, 6 h and 24 h time-points) was “very effective in inducing cleavage of PARP”, the “reduction of BRD4 protein level at 24 h, 5 mg/kg compared with 1 mg/kg” value ([4]; single intravenous dose, 24 h time-point) was “more effective” and the “lowest concentration very effective in reducing c-Myc protein levels” value [5] was at most 30 pM. The tumor response (MV4;11 xenograft tumors; 1 mg/kg) was “complete tumor regression”, the tumor response (MV4;11 xenograft tumors; 5 mg/kg) was “complete and long-lasting tumor regression” and the “effect on GSPT1 protein” value (GSPT1 protein) was “no effect”. The “degradation of BRD2, BRD3 and BRD4 proteins” value ([6]; 0.5 nM) was “complete degradation”, the “concentration effective in reducing BRD2 protein level” value [6] was 30 to 100 pM and the “lowest concentration very effective in reducing BRD3 and BRD4 protein levels” value [6] was at most 10 pM. For the same substance, the cells undergoing apoptosis (MV4;11 cells) was over 60%, the tumor response (RS4;11 xenograft tumors; RS4;11 xenograft, 5 mg/kg weekly) was “complete tumor growth inhibition but not tumor regression” and the tumor response (RS4;11 xenograft tumors; RS4;11 xenograft, 1, 2.5 and 5 mg/kg, 3 times per week for 3 weeks) was “complete and long-lasting tumor regression”. The animal weight loss (RS4;11 xenograft tumors; [10]) was “minimal animal weight loss”, the signs of toxicity (RS4;11 xenograft tumors; [10]) was “no other signs of toxicity” and the “times more potent than ZBC260 in cell growth inhibition” value ([7]; MV4;11 and MOLM-13 cell lines) was over 10 times. The “times more potent than ARV-771 in cell growth inhibition” value ([7]; each of the three cell lines) was over 10 times, the “times more potent than ARV-825 in cell growth inhibition” value ([7]; each of the three cell lines) was over 10 times and the “times more potent than dBET1 in cell growth inhibition” value ([7]; each of the three cell lines) was > 1,000 times. For the same substance, the “caspase 3 cleavage” value [8] was “not detected”, the “lowest concentration inducing robust cleavage of PARP” value [8] was 0.1 to 0.3 nM and the apoptosis induction (RS4;11 cells; RS4;11, 0.1 nM, 24 h treatment) was “minimal effect”. For the same substance, the cells undergoing apoptosis (RS4;11 cells; RS4;11, 0.1 nM, 48 h treatment) was over 40%, the cells undergoing apoptosis (RS4;11 cells; RS4;11, 0.3–10 nM, 24 h treatment) was 15–30% and the “concentration effective in reducing BRD2 protein level” value [9] was 30 to 100 pM. For the same substance, the “lowest concentration very effective in reducing BRD3 and BRD4 protein levels” value [9] was at most 10 pM.
